Test results published in patent publication US20260215426A1, “HERBICIDAL COMPOSITIONS” (SYNGENTA CROP PROTECTION AG, priority 2022, published 2026).

Key:
Format in all cases: in vivo
[1] = system: Amaranthus palmeri (AMAPA); assay: Post-emergence glasshouse efficacy against Amaranthus palmeri; settings: 7-8 true leaves, 14 days
Text: (§1) When active ingredients are combined, the activity to be expected (E) for any given active ingredient combination obeys the so-called Colby Formula and can be calculated as follows (Colby, S. R., Calculating synergistic and antagonistic responses of herbicide combination, Weeds, Vol. 15, pages 20-22; 1967): • ppm=milligrams of active ingredient (a.i.) per liter • X=% action by first active ingredient using p ppm of the active ingredient • Y=% action by second active ingredient sing q ppm of the active ingredient.
(§2) According to Colby, the expected action of active ingredients A+B using p+q ppm of active ingredient is represented by the following formula: […]
(§3) If the action actually observed (O) is greater than the expected action E then the action of the combination is super-additive, i.e. there is a synergistic effect. In mathematical terms, synergism corresponds to a positive value for the difference of (O-E). In the case of purely complementary addition of activities (expected activity), said difference (O-E) is zero. A negative value of said difference (O-E) signals a loss of activity compared to the expected activity.
(§4) Seeds of a variety of test species are sown in standard soil in pots (Echinochloa crus-galli (ECHCG), Conyza canadensis (ERICA), Amaranthus palmeri (AMAPA), Alopecurus myosuroides (ALOMY), Lolium perenne (LOLPE), and Setaria faberi (SETFA)), and cultivated under controlled conditions in a glasshouse (at 24/16° C., day/night; 14 hours light; 65% humidity), the plants are sprayed with an aqueous spray solution derived from the dissolution of the test compound or composition in acetone and IF50 (11.12% Emulsogen EL360 TM+44.44% N-methylpyrrolidone+44.44% Dowanol DPM glycol ether) which was then diluted to the required concentration using 0.2% Genapol XO80 (CAS No. 9043-30-5) in water as the diluent. Test compounds or compositions are applied at the rates stated. The test plants are then grown in a glasshouse under controlled conditions in a glasshouse (at 24/16° C., day/night; 14 hours light; 65% humidity) and watered twice daily. After 14 days, the test is evaluated for the percentage damage caused to the plant (100=total damage to plant; 0=no damage to plant), and the result are shown below in table B1 to B6.

[2] = system: Echinochloa crus-galli (ECHCG); assay: Post-emergence glasshouse efficacy against Echinochloa crus-galli; settings: 4 true leaves, 14 days
Text: as §1, §2, §3, §4

[3] = system: Conyza canadensis (ERICA); assay: Post-emergence glasshouse efficacy against Conyza canadensis; settings: 8 cm rosette, 14 days
Text: as §1, §2, §3, §4

[4] = system: Alopecurus myosuroides (ALOMY); assay: Post-emergence glasshouse efficacy against Alopecurus myosuroides; settings: 14 days
Text: as §1, §2, §3, §4

[5] = system: Setaria faberi (SETFA); assay: Post-emergence glasshouse efficacy against Setaria faberi; settings: 14 days, alone 3.75 g/Ha
Text: as §1, §2
as §3, with “activity. […]” for “activity.”

[6] = system: Lolium perenne (LOLPE); assay: Post-emergence glasshouse efficacy against Lolium perenne; settings: 14 days
Text: as §1, §2, §3, §4

With `CCOC(=O)C1(C)CC(c2cc(-n3c(=O)cc(C(F)(F)F)n(C)c3=O)c(F)cc2Cl)=NO1` (stereo not drawn) [Compound (Ia)] the inhibition at 0.9375 g/ha ([1]; Amaranthus palmeri, 336 h, alone 0.9375 g/Ha, read-out: Observed Activity (%)) was 0%, the inhibition at 1.875 g/ha ([1]; Amaranthus palmeri, 336 h, alone 1.875 g/Ha, read-out: Observed Activity (%)) was 0% and the inhibition at 3.75 g/ha ([1]; Amaranthus palmeri, 336 h, alone 3.75 g/Ha, read-out: Observed Activity (%)) was 36.7%. The inhibition at 1.875 g/ha ([2]; Echinochloa crus-galli, 336 h, alone 1.875 g/Ha, read-out: Observed Activity (%)) was 6.7%, the inhibition at 3.75 g/ha ([2]; Echinochloa crus-galli, 336 h, alone 3.75 g/Ha, read-out: Observed Activity (%)) was 29.3% and the inhibition at 7.5 g/ha ([2]; Echinochloa crus-galli, 336 h, alone 7.5 g/Ha, read-out: Observed Activity (%)) was 73.3%. It also gave an inhibition at 1.875 g/ha ([3]; Erigeron canadensis, 336 h, alone 1.875 g/Ha, read-out: Observed Activity (%)) of 20%, an inhibition at 3.75 g/ha ([3]; Erigeron canadensis, 336 h, alone 3.75 g/Ha, read-out: Observed Activity (%)) of 21.7% and an inhibition at 7.5 g/ha ([3]; Erigeron canadensis, 336 h, alone 7.5 g/Ha, read-out: Observed Activity (%)) of 48.3%. It also gave an inhibition at 30 g/ha ([4]; Alopecurus myosuroides, 336 h, alone 30.0 g/Ha, read-out: Observed Activity (%)) of 67.5%, an inhibition at 60 g/ha ([4]; Alopecurus myosuroides, 336 h, alone 60.0 g/Ha, read-out: Observed Activity (%)) of 97.5% and an inhibition at 3.75 g/ha ([5]; Setaria faberi, 336 h, read-out: Observed Activity (%)) of 67.5%. For the same compound, the inhibition at 3.75 g/ha ([6]; Lolium perenne, 336 h, alone 3.75 g/Ha, read-out: Observed Activity (%)) was 12.5%, the inhibition at 7.5 g/ha ([6]; Lolium perenne, 336 h, alone 7.5 g/Ha, read-out: Observed Activity (%)) was 42.5% and the inhibition at 15 g/ha ([6]; Lolium perenne, 336 h, alone 15.0 g/Ha, read-out: Observed Activity (%)) was 50%. It also gave an inhibition at 30 g/ha ([6]; Lolium perenne, 336 h, alone 30.0 g/Ha, read-out: Observed Activity (%)) of 93.5%.
For bicyclopyrone, the “Observed Activity (%)” value ([1]; alone 3.75 g/Ha) was 0.0%, the “Observed Activity (%)” value ([1]; alone 7.5 g/Ha) was 30.0% and the “Observed Activity (%)” value ([1]; alone 15.0 g/Ha) was 45.0%. The “Observed Activity (%)” value ([1]; alone 30.0 g/Ha) was 18.3%, the “Observed Activity (%)” value ([2]; alone 3.75 g/Ha) was 21.7% and the “Observed Activity (%)” value ([2]; alone 7.5 g/Ha) was 46.7%. The “Observed Activity (%)” value ([2]; alone 15.0 g/Ha) was 56.7%, the “Observed Activity (%)” value ([2]; alone 30.0 g/Ha) was 61.7% and the “Observed Activity (%)” value ([2]; alone 60.0 g/Ha) was 63.3%. For the same compound, the “Observed Activity (%)” value ([3]; alone 15.0 g/Ha) was 65.0%, the “Observed Activity (%)” value ([3]; alone 30.0 g/Ha) was 71.7% and the “Observed Activity (%)” value ([3]; alone 60.0 g/Ha) was 70.0%. For the same compound, the “Observed Activity (%)” value ([4]; alone 7.5 g/Ha) was 47.5%, the “Observed Activity (%)” value ([4]; alone 15.0 g/Ha) was 60.0% and the “Observed Activity (%)” value ([4]; alone 30.0 g/Ha) was 60.0%. The “Observed Activity (%)” value [5] was 22.5%, the “Observed Activity (%)” value ([6]; alone 3.75 g/Ha) was 0.0% and the “Observed Activity (%)” value ([6]; alone 7.5 g/Ha) was 10.0%. The “Observed Activity (%)” value ([6]; alone 15.0 g/Ha) was 25.0% and the “Observed Activity (%)” value ([6]; alone 30.0 g/Ha) was 47.5%.
